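96-well plates; 48 h exposure; 5 concentrations. Endpoints by linear interpolation between flanking doses. Not reached: highest tested concentration assigned. GI50 is the concentration that inhibits growth by half.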 Calls of active or inactive are those of the source. No stated cut-off is given here; in the data, active = GI50 up to about 1.1 µM and inactive = higher.
What was measured:
Assay in all cases: growth of human tumour cells (NCI), 48 h
[1] = tested on: DMS-273
[2] = tested on: SNB-78
[3] = tested on: NCI-H522
[4] = tested on: OVCAR-5
[5] = tested on: XF498
[6] = tested on: MOLT-4
[7] = tested on: T47D
[8] = tested on: M14
[9] = tested on: MDA-MB-435
[10] = tested on: HL-60
[11] = tested on: SF-295
[12] = tested on: OVCAR-8
[13] = tested on: DU-145
[14] = tested on: MCF7
[15] = tested on: CCRF-CEM
[16] = tested on: RPMI-8226
[17] = tested on: BT-549
[18] = tested on: UACC-257
[19] = tested on: K562
[20] = tested on: Malme-3M
[21] = tested on: LOX IMVI
[22] = tested on: SW-620
[23] = tested on: IGROV-1
[24] = tested on: ACHN
[25] = tested on: 786-0
[26] = tested on: SK-OV-3
[27] = tested on: DMS-114
[28] = tested on: HCT-116
[29] = tested on: Hs-578T
[30] = tested on: SN12C
[31] = tested on: NCI-H23
[32] = tested on: CAKI-1
[33] = tested on: OVCAR-4
[34] = tested on: KM-20L2
[35] = tested on: HCC 2998
[36] = tested on: EKVX
[37] = tested on: M19-MEL
[38] = tested on: RXF 393
[39] = tested on: A498
[40] = tested on: MDA-N
[41] = tested on: SK-MEL-28
[42] = tested on: UACC-62
[43] = tested on: HOP-92
[44] = tested on: SF-539
[45] = tested on: OVCAR-3
[46] = tested on: NCI-H226
[47] = tested on: HOP-18
[48] = tested on: LXFL 529
[49] = tested on: U-251
[50] = tested on: SK-MEL-2
[51] = tested on: NCI/ADR-RES
[52] = tested on: NCI-H460
[53] = tested on: DLD-1
[54] = tested on: HOP-62
[55] = tested on: A549
[56] = tested on: SNB-19
[57] = tested on: TK-10
[58] = tested on: SK-MEL-5
[59] = tested on: UO-31
[60] = tested on: PC-3
[61] = tested on: HT-29
[62] = tested on: COLO 205
[63] = tested on: SNB-75
[64] = tested on: HCT-15
[65] = tested on: MDA-MB-231
[66] = tested on: SF-268
[67] = tested on: SR
[68] = tested on: KM12

CC[C@@]1(OC(=O)C(N)CCC(=O)O)C(=O)OCc2c1cc1n(c2=O)Cc2cc3ccccc3nc2-1 (stereo partly specified) was tested, and the GI50 [1] was 18.3 nM (active), the GI50 [2] was 1820 nM (inactive) and the GI50 [3] was 53.6 nM (active). For the same compound, the GI50 [4] was 248 nM (active), the GI50 [5] was 197 nM (active) and the GI50 [6] was 10.6 nM (active). The GI50 [7] was 26.7 nM (active), the GI50 [8] was 34.7 nM (active) and the GI50 [9] was 219 nM (active). The GI50 [10] was 20.8 nM (active), the GI50 [11] was 21.3 nM (active) and the GI50 [12] was 117 nM (active). The GI50 [13] was < 10 nM (active), the GI50 [14] was < 10 nM (active) and the GI50 [15] was < 10 nM (active). For the same compound, the GI50 [16] was 148 nM (active), the GI50 [17] was 733 nM (active) and the GI50 [18] was 228 nM (active). For the same compound, the GI50 [19] was 314 nM (active), the GI50 [20] was 266 nM (active) and the GI50 [21] was 19.6 nM (active). For the same compound, the GI50 [22] was 179 nM (active), the GI50 [23] was 513 nM (active) and the GI50 [24] was 18.7 nM (active). For the same compound, the GI50 [25] was 20.6 nM (active), the GI50 [26] was 55.3 nM (active) and the GI50 [27] was 49.3 nM (active). The GI50 [28] was 122 nM (active), the GI50 [29] was 7050 nM (inactive) and the GI50 [30] was 24.4 nM (active). The GI50 [31] was 34.5 nM (active), the GI50 [32] was < 18.2 nM (active) and the GI50 [33] was 1240 nM (inactive). For the same compound, the GI50 [34] was 474 nM (active), the GI50 [35] was 461 nM (active) and the GI50 [36] was 1440 nM (inactive). The GI50 [37] was 189 nM (active), the GI50 [38] was 147 nM (active) and the GI50 [39] was 187 nM (active). The GI50 [40] was 314 nM (active), the GI50 [41] was 1350 nM (inactive) and the GI50 [42] was < 15.2 nM (active). The GI50 [43] was 615 nM (active), the GI50 [44] was 18 nM (active) and the GI50 [45] was 417 nM (active). The GI50 [46] was 50.2 nM (active), the GI50 [47] was 217 nM (active) and the GI50 [48] was 1380 nM (inactive). The GI50 [49] was 20.2 nM (active), the GI50 [50] was 1120 nM (active) and the GI50 [51] was < 10 nM (active). The GI50 [52] was 11.2 nM (active), the GI50 [53] was 1480 nM (inactive) and the GI50 [54] was < 12.4 nM (active). For the same compound, the GI50 [55] was 34.8 nM (active), the GI50 [56] was 54.1 nM (active) and the GI50 [57] was 4330 nM (inactive). The GI50 [58] was 73.6 nM (active), the GI50 [59] was 49.3 nM (active) and the GI50 [60] was 194 nM (active). For the same compound, the GI50 [61] was 261 nM (active), the GI50 [62] was 667 nM (active) and the GI50 [63] was 52.6 nM (active). The GI50 [64] was 453 nM, the GI50 [65] was 1630 nM (inactive) and the GI50 [66] was 25.6 nM (active).

With COC(=O)[C@]12CCC(C)[C@H](C)[C@H]1C1=CCC3[C@@]4(C)CC[C@H](OC(C)=O)C(C)(C)C4CC[C@@]3(C)C1(C)C(O)C2 (stereo partly specified) the GI50 [1] was > 100000 nM (inactive), the GI50 [2] was > 100000 nM (inactive) and the GI50 [3] was > 100000 nM (inactive). The GI50 [4] was > 100000 nM (inactive), the GI50 [5] was 27900 nM (inactive) and the GI50 [6] was 86500 nM (inactive). The GI50 [8] was > 100000 nM (inactive), the GI50 [11] was > 100000 nM (inactive) and the GI50 [12] was > 100000 nM (inactive). For the same compound, the GI50 [15] was 89300 nM (inactive), the GI50 [16] was 53700 nM (inactive) and the GI50 [18] was > 100000 nM (inactive). The GI50 [19] was 89100 nM (inactive), the GI50 [20] was > 100000 nM (inactive) and the GI50 [21] was 74000 nM (inactive). The GI50 [22] was > 100000 nM (inactive), the GI50 [23] was > 100000 nM (inactive) and the GI50 [24] was > 100000 nM (inactive). For the same compound, the GI50 [67] was > 100000 nM (inactive), the GI50 [25] was > 100000 nM (inactive) and the GI50 [26] was > 100000 nM (inactive). For the same compound, the GI50 [27] was 61700 nM (inactive), the GI50 [28] was 54200 nM (inactive) and the GI50 [30] was > 100000 nM (inactive). For the same compound, the GI50 [31] was > 100000 nM (inactive), the GI50 [32] was > 100000 nM (inactive) and the GI50 [33] was > 100000 nM (inactive). For the same compound, the GI50 [34] was > 100000 nM (inactive), the GI50 [35] was > 100000 nM (inactive) and the GI50 [36] was > 100000 nM (inactive). The GI50 [37] was > 100000 nM (inactive), the GI50 [39] was > 100000 nM (inactive) and the GI50 [41] was > 100000 nM (inactive). For the same compound, the GI50 [42] was > 100000 nM (inactive), the GI50 [43] was > 100000 nM (inactive) and the GI50 [44] was > 100000 nM (inactive). For the same compound, the GI50 [45] was > 100000 nM (inactive), the GI50 [46] was 27100 nM (inactive) and the GI50 [47] was > 100000 nM (inactive). The GI50 [68] was > 100000 nM (inactive), the GI50 [48] was 77300 nM (inactive) and the GI50 [49] was > 100000 nM (inactive). The GI50 [50] was > 100000 nM (inactive), the GI50 [52] was > 100000 nM (inactive) and the GI50 [53] was > 100000 nM (inactive). The GI50 [54] was > 100000 nM (inactive), the GI50 [55] was > 100000 nM (inactive) and the GI50 [56] was > 100000 nM (inactive). The GI50 [57] was > 100000 nM (inactive), the GI50 [58] was > 100000 nM (inactive) and the GI50 [59] was > 100000 nM (inactive). For the same compound, the GI50 [61] was > 100000 nM (inactive), the GI50 [62] was > 100000 nM (inactive) and the GI50 [63] was 45200 nM (inactive). The GI50 [66] was > 100000 nM (inactive).
